Experimental findings from ChEMBL document CHEMBL4476874, “Compounds for the modulation of myc activity” (2018) are described below.

This assay deals with Myc proto-oncogene protein (Homo sapiens, UniProt P01106). Put plainly: Inhibition of human c-Myc assessed as reduction in c-Myc/Max/Ebox DNA complex formation using pre-formed complex of c-Myc and biotinylated DNA containing single Ebox-sequence followed by compound addition and further addition of his6-tagged c-Max and incubated for 2 hrs by AlphaScreen assay. On the technique in general: Alpha assays give light when donor and acceptor beads are brought close together.
Chain of Myc proto-oncogene protein (P01106 whole entry): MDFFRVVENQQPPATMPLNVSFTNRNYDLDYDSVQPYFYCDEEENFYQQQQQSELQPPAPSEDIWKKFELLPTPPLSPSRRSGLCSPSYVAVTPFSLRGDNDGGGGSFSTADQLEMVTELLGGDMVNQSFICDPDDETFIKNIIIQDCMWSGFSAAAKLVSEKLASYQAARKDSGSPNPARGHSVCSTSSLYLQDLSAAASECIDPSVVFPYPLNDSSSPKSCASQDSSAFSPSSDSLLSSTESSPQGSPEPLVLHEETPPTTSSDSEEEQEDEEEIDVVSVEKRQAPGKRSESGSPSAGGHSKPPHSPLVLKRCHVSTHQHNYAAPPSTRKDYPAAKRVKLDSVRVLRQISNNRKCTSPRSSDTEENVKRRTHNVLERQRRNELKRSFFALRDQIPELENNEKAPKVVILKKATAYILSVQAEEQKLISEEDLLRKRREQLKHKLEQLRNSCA
By IC50 is commonly meant the concentration needed to halve the response being measured. Regarding `COCCNCCC(=O)Nc1sc2c(c1-c1nc3ccc(-c4cc5ccccc5[nH]4)cc3s1)CCNC2`, the IC50 is more than 10 µM.

Take `COCCNCCC(=O)Nc1sc2c(c1-c1nc3cc(-c4cccnc4OC)ccc3s1)CCNC2`: the IC50 was more than 10 µM.

On to `COCCNCCC(=O)Nc1sc2c(c1-c1nc3cc(-c4ccc5c(c4)OCO5)ccc3s1)CCNC2`, for which the IC50 is more than 10 µM.

Turning to `COCCNCCC(=O)Nc1sc2c(c1-c1nc3ccc(-c4ccccc4NC(C)=O)cc3s1)CCNC2`, the concentration for half-maximal inhibition (IC50) is more than 10 µM.

`COCCNCCC(=O)Nc1sc2c(c1-c1nc3ccc(-c4ccc(C(=O)N(C)C)cc4F)cc3s1)CCNC2`: the IC50 fell in the range of 0.3 to 1 µM.

For the compound `COCCNCCC(=O)Nc1sc2c(c1-c1nc3cc(-c4cc5cccc(OC)c5[nH]4)ccc3s1)CCNC2`, the IC50 was 1 to 10 µM.

Regarding `COCCNCCC(=O)Nc1sc2c(c1-c1nc3ccc(-c4cccc5cccnc45)cc3s1)CCNC2`, the IC50 was more than 10 µM.

Regarding `COCCNCCC(=O)Nc1sc2c(c1-c1nc3ccc(-c4cnccc4C)cc3s1)CCNC2`, the IC50 was more than 10 µM.

In the case of `COCCNCCC(=O)Nc1sc2c(c1-c1nc3ccc(-c4cnn(Cc5ccccc5)c4)cc3s1)CCNC2`, the IC50 lay within 1 to 10 µM.

On to `CNS(=O)(=O)c1ccccc1-c1ccc2nc(-c3c(NC(=O)CCNCCOC)sc4c3CCNC4)sc2c1`, for which the IC50 was more than 10 µM.

`COCCNCCC(=O)Nc1sc2c(c1-c1nc3ccc(-c4ccc5c(c4)NC(=O)C5)cc3s1)CCNC2`: the IC50 is 1 to 10 µM.

Take `COCCNCCC(=O)Nc1sc2c(c1-c1nc3ccc(-c4c(C)nn(C)c4C)cc3s1)CCNC2`: the IC50 was more than 10 µM.

Take `COCCNCCC(=O)Nc1sc2c(c1-c1nc3ccc(-c4cccc(C#N)c4)cc3s1)CCNC2`: the IC50 is 1 to 10 µM.

For `COCCNCCC(=O)Nc1sc2c(c1-c1nc3ccc(-c4ccc(OC)nc4C)cc3s1)CCNC2`, the IC50 is more than 10 µM.

For `COCCNCCC(=O)Nc1sc2c(c1-c1nc3cc(-c4ccccc4Cl)ccc3s1)CCNC2`, the IC50 was in the range of 1 to 10 µM.

Regarding `COCCNCCC(=O)Nc1sc2c(c1-c1nc3cc(-c4ccccc4S(C)(=O)=O)ccc3s1)CCNC2`, the IC50 was more than 10 µM.

Regarding `COCCNCCC(=O)Nc1sc2c(c1-c1nc3ccc(-c4ccc(C(=O)OC)nc4)cc3s1)CCNC2`, the IC50 was in the range of 1 to 10 µM.

`COCCNCCC(=O)Nc1sc2c(c1-c1nc3cc(-c4ccc(C)c(C#N)c4)ccc3s1)CCNC2`: the IC50 was more than 10 µM.

For `COCCNCCC(=O)Nc1sc2c(c1-c1nc3ccc(-c4cccc5[nH]ncc45)cc3s1)CCNC2`, the IC50 lay within 1 to 10 µM.

With `COCCNCCC(=O)Nc1sc2c(c1-c1nc3cc(-c4ccc(C)nc4OC)ccc3s1)CCNC2`, the IC50 was 1 to 10 µM.

`COCCNCCC(=O)Nc1sc2c(c1-c1nc3ccc(-c4cccc(C(F)(F)F)c4)cc3s1)CCNC2`: the IC50 was more than 10 µM.

On to `COCCNCCC(=O)Nc1sc2c(c1-c1nc3ccc(-c4ccc5c(c4)NC(=O)CO5)cc3s1)CCNC2`, for which the IC50 was more than 10 µM.

Turning to `COCCNCCC(=O)Nc1sc2c(c1-c1nc3cc(-c4ccccc4O)ccc3s1)CCNC2`, the IC50 was 1 to 10 µM.

On to `COCCNCCC(=O)Nc1sc2c(c1-c1nc3cc(-c4ccc(O)c(F)c4)ccc3s1)CCNC2`, for which the half-inhibitory concentration (IC50) was more than 10 µM.

Consider `COCCNCCC(=O)Nc1sc2c(c1-c1nc3ccc(-c4cnc(N)c(C(F)(F)F)c4)cc3s1)CCNC2`, for which the IC50 was more than 10 µM.

On to `COCCNCCC(=O)Nc1sc2c(c1-c1nc3ccc(-c4cncc(OC)c4)cc3s1)CCNC2`, for which the IC50 lay in the range of 1 to 10 µM.

Consider `COCCNCCC(=O)Nc1sc2c(c1-c1nc3cc(-c4cnc(OC)c(OC)c4)ccc3s1)CCNC2`, for which the IC50 fell in the range of 1 to 10 µM.

In the case of `COCCNCCC(=O)Nc1sc2c(c1-c1nc3cc(-c4cccc(C(F)(F)F)c4)ccc3s1)CCNC2`, the IC50 is more than 10 µM.

For the compound `COCCNCCC(=O)Nc1sc2c(c1-c1nc3cc(-c4ccc5c(c4)NC(=O)CO5)ccc3s1)CCNC2`, the IC50 lay in the range of 1 to 10 µM.

Take `COCCNCCC(=O)Nc1sc2c(c1-c1nc3ccc(-c4ccc(C(=O)N5CCOCC5)cc4)cc3s1)CCNC2`: the IC50 fell in the range of 0.3 to 1 µM.

Take `COCCNCCC(=O)Nc1sc2c(c1-c1nc3ccc(-c4ccncc4Cl)cc3s1)CCNC2`: the IC50 is more than 10 µM.

As for `COCCNCCC(=O)Nc1sc2c(c1-c1nc3cc(-c4c(C)n[nH]c4C)ccc3s1)CCNC2`, the IC50 fell in the range of 1 to 10 µM.

Regarding `COCCNCCC(=O)Nc1sc2c(c1-c1nc3ccc(-c4cnccc4OC)cc3s1)CCNC2`, the IC50 is more than 10 µM.

Consider `COCCNCCC(=O)Nc1sc2c(c1-c1nc3cc(-c4cc(F)cnc4OC)ccc3s1)CCNC2`, for which the IC50 is 1 to 10 µM.

On to `COCCNCCC(=O)Nc1sc2c(c1-c1nc3ccc(-c4ccccc4S(C)(=O)=O)cc3s1)CCNC2`, for which the IC50 is more than 10 µM.

Regarding `COCCNCCC(=O)Nc1sc2c(c1-c1nc3cc(-c4cccc(C(=O)N5CCN(C)CC5)c4)ccc3s1)CCNC2`, the IC50 lay in the range of 1 to 10 µM.

With `COCCNCCC(=O)Nc1sc2c(c1-c1nc3ccc(-c4ccccc4Cl)cc3s1)CCNC2`, the IC50 is more than 10 µM.

With `COCCNCCC(=O)Nc1sc2c(c1-c1nc3ccc(-c4cnc(OC)c(OC)c4)cc3s1)CCNC2`, the concentration for half-maximal inhibition (IC50) lay in the range of 1 to 10 µM.

`COCCNCCC(=O)Nc1sc2c(c1-c1nc3ccc(-c4ccnc5[nH]ccc45)cc3s1)CCNC2`: the IC50 was more than 10 µM.

Turning to `COCCNCCC(=O)Nc1sc2c(c1-c1nc3ccc(-c4ccc(O)c(F)c4)cc3s1)CCNC2`, the IC50 was more than 10 µM.

With `CNc1ncc2cc(-c3ccc4sc(-c5c(NC(=O)CCNCCOC)sc6c5CCNC6)nc4c3)ccc2n1`, the IC50 is more than 10 µM.

On to `COCCNCCC(=O)Nc1sc2c(c1-c1nc3ccc(-c4ccc(OC(C)C)nc4)cc3s1)CCNC2`, for which the IC50 was more than 10 µM.

Take `COCCNCCC(=O)Nc1sc2c(c1-c1nc3ccc(-c4ccc(F)nc4F)cc3s1)CCNC2`: the IC50 was more than 10 µM.

`COCCNCCC(=O)Nc1sc2c(c1-c1nc3ccc(-c4ccc(OC)c(OC)c4)cc3s1)CCNC2`: the IC50 is more than 10 µM.

With `COCCNCCC(=O)Nc1sc2c(c1-c1nc3ccc(-c4cncc(C#N)c4)cc3s1)CCNC2`, the IC50 was in the range of 1 to 10 µM.

For `COCCNCCC(=O)Nc1sc2c(c1-c1nc3ccc(-c4c(F)cccc4F)cc3s1)CCNC2`, the IC50 is more than 10 µM.

With `COCCNCCC(=O)Nc1sc2c(c1-c1nc3ccc(-c4ccc5cnn(C)c5c4)cc3s1)CCNC2`, the IC50 is more than 10 µM.

As to `COCCNCCC(=O)Nc1sc2c(c1-c1nc3cc(-c4ccncc4Cl)ccc3s1)CCNC2`, the IC50 is more than 10 µM.

For the compound `COCCNCCC(=O)Nc1sc2c(c1-c1nc3ccc(-c4ccc(C(F)(F)F)nc4)cc3s1)CCNC2`, the concentration for half-maximal inhibition (IC50) was more than 10 µM.

Consider `COCCNCCC(=O)Nc1sc2c(c1-c1nc3cc(-c4ccccc4)ccc3s1)CCNC2`, for which the IC50 is 1 to 10 µM.

With `COCCNCCC(=O)Nc1sc2c(c1-c1nc3ccc(-c4ccccc4NS(C)(=O)=O)cc3s1)CCNC2`, the IC50 is more than 10 µM.

With `COCCNCCC(=O)Nc1sc2c(c1-c1nc3ccc(-c4cccnc4C)cc3s1)CCNC2`, the IC50 is more than 10 µM.

As for `COCCNCCC(=O)Nc1sc2c(c1-c1nc3ccc(-c4cnc(N5CCOCC5)nc4)cc3s1)CCNC2`, the IC50 is more than 10 µM.

`COCCNCCC(=O)Nc1sc2c(c1-c1nc3cc(-c4cccc(C(=O)NCCN(C)C)c4)ccc3s1)CCNC2`: the IC50 is 0.3 to 1 µM.

For `COCCNCCC(=O)Nc1sc2c(c1-c1nc3ccc(-c4c(C)n[nH]c4C)cc3s1)CCNC2`, the IC50 was more than 10 µM.

Regarding `COCCNCCC(=O)Nc1sc2c(c1-c1nc3ccc(-c4ccccc4O)cc3s1)CCNC2`, the IC50 was more than 10 µM.

As for `COCCNCCC(=O)Nc1sc2c(c1-c1nc3cc(-c4ccc(S(=O)(=O)NC5CC5)cc4)ccc3s1)CCNC2`, the IC50 is more than 10 µM.

As for `COCCNCCC(=O)Nc1sc2c(c1-c1nc3cc(-c4ccc(OC)nc4C)ccc3s1)CCNC2`, the IC50 is more than 10 µM.

As for `COCCNCCC(=O)Nc1sc2c(c1-c1nc3cc(-c4ccnc5[nH]ccc45)ccc3s1)CCNC2`, the IC50 lay within 1 to 10 µM.

On to `COCCNCCC(=O)Nc1sc2c(c1-c1nc3cc(-c4cccc5cccnc45)ccc3s1)CCNC2`, for which the IC50 was more than 10 µM.

As to `COCCNCCC(=O)Nc1sc2c(c1-c1nc3cc(-c4ccccc4NC(C)=O)ccc3s1)CCNC2`, the IC50 was more than 10 µM.

As to `CNS(=O)(=O)c1ccccc1-c1ccc2sc(-c3c(NC(=O)CCNCCOC)sc4c3CCNC4)nc2c1`, the IC50 is more than 10 µM.

For the compound `COCCNCCC(=O)Nc1sc2c(c1-c1nc3ccc(-c4ccc(C)nc4OC)cc3s1)CCNC2`, the IC50 was more than 10 µM.

Take `COCCNCCC(=O)Nc1sc2c(c1-c1nc3ccc(-c4ccc5ncccc5c4)cc3s1)CCNC2`: the IC50 is more than 10 µM.

Turning to `COCCNCCC(=O)Nc1sc2c(c1-c1nc3ccc(-c4ccnc(C(F)(F)F)c4)cc3s1)CCNC2`, the IC50 was more than 10 µM.

For `COCCNCCC(=O)Nc1sc2c(c1-c1nc3ccc(-c4cc(F)cnc4OC)cc3s1)CCNC2`, the IC50 was more than 10 µM.

In the case of `COCCNCCC(=O)Nc1sc2c(c1-c1nc3ccc(-c4ccc(S(=O)(=O)NC5CC5)cc4)cc3s1)CCNC2`, the 50% inhibitory concentration (IC50) was more than 10 µM.

`COCCNCCC(=O)Nc1sc2c(c1-c1nc3cc(-c4ccc5c(=O)[nH]ccc5c4)ccc3s1)CCNC2`: the IC50 was more than 10 µM.

For `COCCNCCC(=O)Nc1sc2c(c1-c1nc3cc(-c4cccc5[nH]ncc45)ccc3s1)CCNC2`, the IC50 is 1 to 10 µM.

With `COCCNCCC(=O)Nc1sc2c(c1-c1nc3ccc(-c4cc5cccc(OC)c5[nH]4)cc3s1)CCNC2`, the IC50 fell in the range of 1 to 10 µM.

Take `COCCNCCC(=O)Nc1sc2c(c1-c1nc3ccc(-c4cnc(OC)nc4)cc3s1)CCNC2`: the IC50 was 1 to 10 µM.

For the compound `COCCNCCC(=O)Nc1sc2c(c1-c1nc3ccc(-c4cncc(OCCOC)c4)cc3s1)CCNC2`, the IC50 is more than 10 µM.

For the compound `COCCNCCC(=O)Nc1sc2c(c1-c1nc3ccc(-c4ccc(OC)nc4)cc3s1)CCNC2`, the IC50 is 1 to 10 µM.

With `COCCNCCC(=O)Nc1sc2c(c1-c1nc3cc(-c4cc5ccccc5[nH]4)ccc3s1)CCNC2`, the IC50 is more than 10 µM.

Regarding `COCCNCCC(=O)Nc1sc2c(c1-c1nc3ccc(-c4ccc5ncnn5c4)cc3s1)CCNC2`, the IC50 lay in the range of 1 to 10 µM.

Take `COCCNCCC(=O)Nc1sc2c(c1-c1nc3cc(-c4ccc5c(c4)NC(=O)C5)ccc3s1)CCNC2`: the IC50 is more than 10 µM.

Turning to `COCCNCCC(=O)Nc1sc2c(c1-c1nc3ccc(-c4cccnc4F)cc3s1)CCNC2`, the IC50 is more than 10 µM.

As for `COCCNCCC(=O)Nc1sc2c(c1-c1nc3cc(-c4ccc5ncccc5c4)ccc3s1)CCNC2`, the IC50 is more than 10 µM.
